{"source": "patent US20140050773A1", "about": "“COMPOUND COMPRISING ALPHA-MSH FOR USE IN ENDODONTIC REGENERATION” (Universite De Strasbourg, priority 2010, published 2014)", "key": {"[1]": {"system": "pulp fibroblasts", "test": "Intracellular cAMP accumulation in pulp fibroblasts", "type": "cell-based, human", "details": "30 min; forskolin 3 μM, MTII 10 μg·mL-1; basal level 239±36 fmol/well", "procedure": "Pulp fibroblasts (1×10^5) were plated in 24-well-plates in D-MEM® containing 1% antimicotic solution and 10% FBS (Life Technologies, Paisley, UK). The cultures were incubated at 37° C. in a humidified atmosphere of 5% CO2, and allowed to adhere for 2 h. Cells were then washed and incubated with […] Forskolin (positive control), the MC3/4R agonist MTII (10 μg·mL^−1), the MC1R agonist MS05 (10 μg·mL^−1), and PGA-α-MSH (10-300 μg·mL^−1) in the presence of 1 mM isobutylmethylxantine in serum-free medium and incubated for 30 min at 37° C. in a humidified atmosphere of 5% CO2. A non-treated group incubated in serum-free medium alone served as a negative control. Cell supernatants were then removed and the cells were lysed. Intracellular cAMP was quantified using a commercially available enzyme immunoassay kit and a standard curve constructed with 0-3200 fmol μg·mL-1 cAMP (Amersham Bioscience, Little Chalfont, U.K)."}, "[2]": {"system": "pulp fibroblasts", "test": "Cell proliferation by the acid phosphatase method", "type": "cell-based, human", "details": "in solution, FIG. 4 lower part", "procedure": "(§1) Cell viability was determined by trypan blue exclusion. Cell proliferation was measured by the acid phosphatase method. Briefly, cells were washed with […] PBS. The buffer added to each well contains 0.1 M sodium acetate (pH 5.5), 0.1% of X-100 Triton and 10 mM of p-nitrophenyl phosphate [pNPP] (Sigma, St Quentin, France). After a 3 h-incubation at 37° C. with 5% 002 the reaction was stopped by the addition of 1 N sodium hydroxide and the absorbance was measured by spectrophotometer at 405 nm (Labsystems, iEMS Reader MF, Gibco). Cell viability and proliferation were measured at 24 and 96 hours. Cell spreading and adhesion were observed by confocal microscopy. AlamarBlue® (Serotec) was used to assess cellular proliferation. The AlamarBlue test is a non-toxic, water-soluble, calorimetric redox indicator that changes color in response to cell metabolism. […] After 6 hours, […] of incubation media was transferred to 96-well plates and measured at 590 nm and 630 nm in order to determine the percentage of AlamarBlue reduction. The ability of free α-MSH and PGA-α-MSH to promote proliferation and/or adhesion of fibroblasts was also determined. Cell viability was determined by trypan blue exclusion and the proliferation was measured by the acidic phosphatase method (FIG. 4)."}, "[3]": {"system": "LPS-stimulated pulp fibroblasts", "test": "TNF-α, IL-8 and IL-10 production by LPS-stimulated pulp fibroblasts (ELISA)", "type": "cell-based, human", "procedure": "Human pulp fibroblasts were obtained from human third molar germ tissue extracted for orthodontic reasons (Dental School, Strasbourg). These tissues were used with the patient's informed consent and approval by the Research Ethics Committee. Human pulp fibroblasts and mouse embryo fibroblasts (NIH 3T3, a gift of IGBMC, Strasbourg, France) were cultured in Dulbecco's modified Eagle's medium (D-MEM®) containing 1% antimicotic solution and 10% FBS (Life Technologies, Paisley, UK). The cultures were incubated at 37° C. in a humidified atmosphere of 5% CO2. When the cells reached sub-confluence, they were harvested with trypsin and sub-cultured. The fibroblast cultures used for all experiments were from passages three to six. Fibroblasts (5×10^5) were seeded in 24-well plates (Nunc, CML, Nemours, France) and incubated with LPS (10 ng·mL^−1) from E, coli in the presence or absence of free α-MSH or PGA-Q-MSH coupled peptides, in D-MEM® without FBS. At different time-points of incubation, cells were centrifuged and the levels of TNF-α, IL-10 or IL-8 in cell-free supernatants were determined using commercially available ELISA kits (Endogen, Woburn, Mass.). Studies of the effects of multilayer films consisting of PGA-α-MSH coupled peptides were conducted by seeding 5×10^5 cells directly onto the film in a 24-well plate as previously described (Chluba et al. Biomacromolecules. 2001, 2:800-805). All experiments were performed at least three times. […]"}, "[4]": {"system": "pulp fibroblasts", "test": "Pulp fibroblast adhesion by confocal microscopy", "type": "cell-based, human", "details": "2 days of culture; FIG. 5", "method": "Cell spreading and adhesion were observed by confocal microscopy. […] In this study, 5×10^4 pulp fibroblasts were seeded on the top of LbL-coated 14 mm-diameter coverslips (n=3) placed on 24-well plates. […] After 2 days of proliferation, cells were fixed with 4% PFA during 1 hour, permeabilized with 0.1% Triton X-100 for 1 hour and incubated for 20 min with Alexa Fluor 546-conjugated phalloidin (Molecular Probes) for F-actin labeling and 5 min with 200 nM DAPI (Sigma) for nuclear staining. Cells were mounted on microscope slides using Vectashield (Vector) and imaged by confocal microscopy (Zeiss, LSM 510). CLSM observations were documented with a Zeiss LSM 510 microscope using a ×40/1.4 oil immersion objective at 0.4 μm z-section intervals. FITC fluorescence was detected after excitation at 488 nm with a cutoff dichroic mirror 488 nm and an emission band-pass filter 505-530 nm (green). All experiments were performed with cells in solution."}, "[5]": {"system": "pulp fibroblasts", "type": "cell-based, human", "procedure": "as §1"}, "[6]": {"target": "MCR receptors (melanocortin receptors) on human pulp fibroblasts", "test": "cell-based or functional assay"}}, "data": [{"compound": "C=C[C@@]1(C)CC(=O)[C@]2(O)[C@@]3(C)[C@@H](O)CCC(C)(C)[C@@H]3[C@H](O)[C@H](OC(C)=O)[C@@]2(C)O1", "note": "[forskolin, Forskolin]", "values": [{"measurement": "cAMP concentration", "setting": "[1]", "value": "3367±242", "unit": "fmol/well"}]}, {"compound": "HS—CH2CH2-Ser-Tyr-Ser-Nle-Glu-His-D-Phe-Arg-Trp-Gly-Lys-Pro-Val-COOH [α-MSH]", "values": [{"measurement": "proliferation of pulp fibroblasts", "setting": "[2]", "value": "inhibits the proliferation"}, {"measurement": "proliferation of pulp fibroblasts", "setting": "[2]; listed as free α-MSH", "value": "without effect"}, {"measurement": "LPS-induced IL-8 secretion", "setting": "[3]; 100 μg·mL^−1, 6 h time period", "value": "no inhibition"}, {"measurement": "IL-10 production by LPS-stimulated pulp fibroblasts", "setting": "[3]; LPS 10 ng mL^−1, 100 μg·mL-1 peptide, late (4 hours)", "value": "induced significant levels"}, {"measurement": "amount of IL-8 produced (LPS-stimulated)", "setting": "[3]; concentration increased to 400 μg·mL-1, data not shown", "value": "did not change"}, {"measurement": "LPS induced TNF-α secretion", "setting": "[3]; early timepoints (20 min to 2 h), LPS 10 ng mL^−1, 100 μg·mL-1 peptide", "value": "significantly inhibited"}, {"measurement": "LPS induced TNF-α secretion", "setting": "[3]; later time-points (4-6 h), LPS 10 ng mL^−1, 100 μg·mL-1 peptide", "value": "this effect was lost"}, {"measurement": "adhesion of pulp fibroblasts", "setting": "[4]", "value": "without effect"}, {"measurement": "viability of pulp fibroblasts", "setting": "[5]", "value": "not the viability"}]}, {"compound": "MTII", "values": [{"measurement": "cAMP concentration", "setting": "[1]", "value": "459±14", "unit": "fmol/well"}]}, {"compound": "MTII (peptide)", "values": [{"measurement": "intracellular cAMP accumulation in pulp fibroblasts, 30 min", "setting": "[6]", "value": 459, "unit": "fmol/well"}]}]}
